Columns and labels:
[1] = target: T1, MRP2 (Homo sapiens, UniProt Q92887); assay: Vesicular transport assay, MRP2 (CDCF substrate); format: biochemical; conditions: food additive 50 μM; CDCF 5 μM; n = 1
T1 construct: made in house; host or cells: Spodoptera frugiperda Sf9 cells, crude membrane vesicles

[2] = target: T2, P-gp (Homo sapiens, UniProt P08183); assay: Vesicular transport assay, P-gp (N-methyl-quinidine substrate)
[3] = target: T2, P-gp; parameters: made in house; host or cells: Spodoptera frugiperda Sf9 cells, crude membrane vesicles; conditions: Caco-2 cells; ref previous studies; cited from earlier work
[4] = target: T3, OATP2B1 (Homo sapiens, UniProt O94956); assay: HEK293 uptake assay, OATP2B1 (5-carboxyfluorescein substrate); format: cell-based
T3 construct: expressed in transfected cells; host or cells: HEK293 cells (ATCC) transduced with recombinant OATP2B1 baculovirus
T3 sequence (O94956 1-709): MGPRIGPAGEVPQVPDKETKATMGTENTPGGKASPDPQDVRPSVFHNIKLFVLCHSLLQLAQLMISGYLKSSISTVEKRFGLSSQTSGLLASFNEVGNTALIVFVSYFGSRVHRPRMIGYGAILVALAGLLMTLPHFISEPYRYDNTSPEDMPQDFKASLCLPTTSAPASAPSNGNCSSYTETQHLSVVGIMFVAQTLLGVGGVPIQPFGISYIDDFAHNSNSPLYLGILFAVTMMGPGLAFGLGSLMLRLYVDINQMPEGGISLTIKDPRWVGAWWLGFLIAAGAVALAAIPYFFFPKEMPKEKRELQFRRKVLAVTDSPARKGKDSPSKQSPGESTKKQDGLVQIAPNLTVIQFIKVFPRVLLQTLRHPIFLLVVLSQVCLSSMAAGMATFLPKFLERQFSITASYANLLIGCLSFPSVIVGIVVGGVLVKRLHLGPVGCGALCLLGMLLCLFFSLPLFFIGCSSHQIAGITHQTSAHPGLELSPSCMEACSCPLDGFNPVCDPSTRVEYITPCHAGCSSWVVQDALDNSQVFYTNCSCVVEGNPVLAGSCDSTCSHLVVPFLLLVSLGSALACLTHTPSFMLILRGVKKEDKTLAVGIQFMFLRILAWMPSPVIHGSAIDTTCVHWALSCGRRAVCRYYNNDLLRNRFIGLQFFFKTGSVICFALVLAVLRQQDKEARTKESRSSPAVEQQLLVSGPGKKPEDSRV
Experimental: The inhibition of OATP2B1 was studied using a HEK293 cell-based uptake assay. HEK293 cells were cultured in DMEM supplemented with 10% FBS at 37 °C and 5% CO2 and seeded at 22,500 cells/well on 96-well plates coated with 0.1 mg/mL poly-D-lysine. After 24 h, the medium was replaced with a transduction mix (DMEM with 10% FBS, 5 mM sodium butyrate, and recombinant OATP2B1 or enhanced yellow fluorescent protein [eYFP, negative control] baculoviruses). The baculoviruses were produced as previously described. The uptake assay was performed after approximately 48 h. […] Test solutions also contained the substrate. Cells were washed with warm transport buffer and preincubated at 37 °C. Preincubation solutions were replaced with test solutions and incubated at 37 °C with shaking at 250 rpm. Transport was terminated by aspirating the test solution and washing the wells with an ice-cold transport buffer (150 μL) three times. Wells were left to dry, and cells were lysed with 0.1 M NaOH. […] Total protein concentration was measured from six random wells with a Pierce Coomassie (Bradford) Assay kit (Thermo Fisher Scientific) to ensure a similar protein concentration in the OATP2B1 and eYFP wells.

[5] = target: T4, BCRP (Homo sapiens, UniProt Q9UNQ0); assay: Vesicular transport assay, BCRP (Lucifer yellow substrate); format: biochemical; parameters: made in house; host or cells: Spodoptera frugiperda Sf9 cells, crude membrane vesicles
T4 sequence (Q9UNQ0 1-655): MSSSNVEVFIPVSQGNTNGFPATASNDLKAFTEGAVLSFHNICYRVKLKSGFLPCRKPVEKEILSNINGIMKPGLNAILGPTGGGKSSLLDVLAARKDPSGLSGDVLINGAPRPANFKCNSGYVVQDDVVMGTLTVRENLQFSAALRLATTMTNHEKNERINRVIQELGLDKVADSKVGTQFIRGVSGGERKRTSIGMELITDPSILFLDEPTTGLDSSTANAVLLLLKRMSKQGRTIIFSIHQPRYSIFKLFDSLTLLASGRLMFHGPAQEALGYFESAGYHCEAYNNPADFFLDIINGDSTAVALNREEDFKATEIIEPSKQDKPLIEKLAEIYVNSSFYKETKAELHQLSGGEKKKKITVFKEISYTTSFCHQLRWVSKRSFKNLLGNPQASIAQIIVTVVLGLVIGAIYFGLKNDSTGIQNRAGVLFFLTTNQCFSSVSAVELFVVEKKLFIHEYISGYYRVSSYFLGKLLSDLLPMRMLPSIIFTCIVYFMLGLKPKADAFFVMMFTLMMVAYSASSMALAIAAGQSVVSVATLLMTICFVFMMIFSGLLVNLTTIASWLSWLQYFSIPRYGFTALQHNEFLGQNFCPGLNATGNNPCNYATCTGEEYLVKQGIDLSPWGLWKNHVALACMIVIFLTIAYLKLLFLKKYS

[6] = target: T4, BCRP; conditions: cited from earlier work
[7] = system: Caco-2 cells; parameters: method as in not given; conditions: micellar formulation, ref not given; cited from earlier work

T2 sequence (P08183 whole entry): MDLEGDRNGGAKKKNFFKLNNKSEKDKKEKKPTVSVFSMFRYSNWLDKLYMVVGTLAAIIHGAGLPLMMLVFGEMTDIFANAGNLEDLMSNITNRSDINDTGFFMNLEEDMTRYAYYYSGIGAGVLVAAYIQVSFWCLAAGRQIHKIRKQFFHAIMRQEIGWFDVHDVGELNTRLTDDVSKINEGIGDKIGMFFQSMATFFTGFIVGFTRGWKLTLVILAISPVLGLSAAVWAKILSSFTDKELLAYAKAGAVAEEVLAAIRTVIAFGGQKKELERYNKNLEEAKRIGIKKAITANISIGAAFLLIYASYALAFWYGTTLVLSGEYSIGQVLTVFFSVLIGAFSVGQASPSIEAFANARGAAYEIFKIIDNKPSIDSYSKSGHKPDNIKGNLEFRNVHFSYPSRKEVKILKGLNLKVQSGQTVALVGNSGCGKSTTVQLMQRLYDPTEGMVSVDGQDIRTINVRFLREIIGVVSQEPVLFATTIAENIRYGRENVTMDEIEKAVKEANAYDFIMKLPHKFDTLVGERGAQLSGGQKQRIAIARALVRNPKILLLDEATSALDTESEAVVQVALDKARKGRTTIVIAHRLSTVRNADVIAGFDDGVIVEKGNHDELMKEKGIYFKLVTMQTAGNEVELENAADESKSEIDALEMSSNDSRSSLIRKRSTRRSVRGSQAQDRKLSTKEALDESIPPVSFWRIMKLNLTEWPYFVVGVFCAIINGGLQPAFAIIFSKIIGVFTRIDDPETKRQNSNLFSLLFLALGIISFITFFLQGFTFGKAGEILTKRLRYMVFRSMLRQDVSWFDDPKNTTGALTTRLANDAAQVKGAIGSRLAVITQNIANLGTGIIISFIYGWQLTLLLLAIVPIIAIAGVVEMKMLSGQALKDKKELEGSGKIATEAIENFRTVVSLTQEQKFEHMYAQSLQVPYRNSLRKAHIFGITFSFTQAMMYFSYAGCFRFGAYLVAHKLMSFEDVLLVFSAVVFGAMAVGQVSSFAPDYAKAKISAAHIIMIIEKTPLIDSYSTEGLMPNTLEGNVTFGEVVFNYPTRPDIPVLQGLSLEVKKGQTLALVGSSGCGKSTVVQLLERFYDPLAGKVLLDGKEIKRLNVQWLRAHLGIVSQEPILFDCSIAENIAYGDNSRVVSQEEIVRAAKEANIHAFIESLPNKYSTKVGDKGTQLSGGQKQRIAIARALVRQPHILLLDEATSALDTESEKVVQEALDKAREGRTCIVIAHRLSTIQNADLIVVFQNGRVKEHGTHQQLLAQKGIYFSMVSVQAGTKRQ
T1 sequence (Q92887 whole entry): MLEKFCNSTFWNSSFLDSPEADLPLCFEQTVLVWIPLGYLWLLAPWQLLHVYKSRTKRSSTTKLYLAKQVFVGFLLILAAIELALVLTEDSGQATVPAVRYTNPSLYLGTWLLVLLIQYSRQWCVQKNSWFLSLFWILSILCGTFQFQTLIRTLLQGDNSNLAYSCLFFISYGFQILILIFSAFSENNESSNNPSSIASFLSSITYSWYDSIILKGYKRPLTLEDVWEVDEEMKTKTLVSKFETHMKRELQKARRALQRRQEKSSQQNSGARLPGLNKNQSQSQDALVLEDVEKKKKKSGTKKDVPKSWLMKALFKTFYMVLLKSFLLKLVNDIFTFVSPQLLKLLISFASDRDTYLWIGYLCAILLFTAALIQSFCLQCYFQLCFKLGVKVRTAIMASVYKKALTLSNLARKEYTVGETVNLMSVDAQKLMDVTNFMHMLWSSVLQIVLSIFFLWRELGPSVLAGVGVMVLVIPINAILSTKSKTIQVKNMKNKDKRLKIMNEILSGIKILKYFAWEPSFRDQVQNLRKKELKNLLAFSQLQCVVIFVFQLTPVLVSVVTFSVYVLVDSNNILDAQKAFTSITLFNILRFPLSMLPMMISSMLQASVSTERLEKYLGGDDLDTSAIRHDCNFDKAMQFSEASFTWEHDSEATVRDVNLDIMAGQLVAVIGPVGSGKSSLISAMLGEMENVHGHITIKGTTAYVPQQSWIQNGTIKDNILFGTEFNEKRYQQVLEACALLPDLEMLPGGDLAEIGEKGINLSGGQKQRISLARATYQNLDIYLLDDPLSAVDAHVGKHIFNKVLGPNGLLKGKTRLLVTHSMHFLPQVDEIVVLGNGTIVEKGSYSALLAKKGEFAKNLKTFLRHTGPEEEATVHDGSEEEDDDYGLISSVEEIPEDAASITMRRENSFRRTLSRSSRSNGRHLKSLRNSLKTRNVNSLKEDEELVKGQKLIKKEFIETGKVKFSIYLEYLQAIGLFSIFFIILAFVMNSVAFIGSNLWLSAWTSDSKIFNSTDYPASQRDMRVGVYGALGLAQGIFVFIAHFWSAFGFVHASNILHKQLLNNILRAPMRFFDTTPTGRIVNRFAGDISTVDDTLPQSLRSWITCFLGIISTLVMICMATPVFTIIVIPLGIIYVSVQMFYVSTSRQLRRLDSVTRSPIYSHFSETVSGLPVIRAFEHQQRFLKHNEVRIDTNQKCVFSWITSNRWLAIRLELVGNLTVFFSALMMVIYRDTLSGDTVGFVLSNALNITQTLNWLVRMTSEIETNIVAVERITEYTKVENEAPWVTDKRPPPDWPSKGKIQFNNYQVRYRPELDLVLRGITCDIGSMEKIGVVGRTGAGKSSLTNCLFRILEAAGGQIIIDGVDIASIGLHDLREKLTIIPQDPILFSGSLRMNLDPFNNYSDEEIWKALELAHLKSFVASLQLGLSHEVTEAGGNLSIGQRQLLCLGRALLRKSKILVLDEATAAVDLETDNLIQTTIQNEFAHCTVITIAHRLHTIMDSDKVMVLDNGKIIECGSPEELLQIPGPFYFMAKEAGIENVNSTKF

CC1=C(/C=C/C(C)=C/C=C/C(C)=C/C=C/C=C(C)/C=C/C=C(C)/C=C/C2=C(C)CCCC2(C)C)C(C)(C)CCC1 [beta-carotene]
inhibition of MRP2 substrate accumulation [1]: did not inhibit
IC50 [2]: 3.2 µM
inhibition at 50 μM ([2]; Sf9-derived crude membrane vesicles expressing P-gp, pH 7, probe N-methyl-quinidine 2 μM): ≥ 50%
P-gp inhibition in Caco-2 cells [3]: inhibitor of P-gp
IC50 ([4]; 5-carboxyfluorescein 2 μM, HEK293 cells, pH 6, n = 3, read-out: IC50 (95% CI), OATP2B1): 27.5 µM
inhibition at 50 μM ([4]; human, HEK293 cells transduced with recombinant OATP2B1 baculovirus, pH 6, probe 5-carboxyfluorescein 2 μM, food additive 50 μM, n = 1, read-out: inhibition of OATP2B1-mediated uptake): ≥ 50%
IC50 ([5]; Lucifer yellow 50 μM, membrane vesicles, n = 3, read-out: IC50 (95% CI), BCRP): 12.1 µM
inhibition at 50 μM ([5]; Sf9-derived crude membrane vesicles expressing BCRP, pH 7, probe Lucifer yellow 50 μM, food additive 50 μM, n = 1, read-out: inhibition of BCRP substrate accumulation): ≥ 50%
BCRP inhibition potency [6]: weak inhibition potency
applied dose recovered in the basolateral chamber [7]: ≤ 35%

From article PMC12406256, “Food Additives Inhibit Intestinal Drug Transporters but Have Limited Effect on In Vitro Drug Permeability” (Molecular Pharmaceutics, 2025)
